Compound | melting point
COc1cc(OC)c(C(=O)OCCSc2ccnc3cc(Cl)ccc23)cc1OC [Compound 13, 2-[(7-Chloroquinolin-4-yl)sulfanyl]ethyl 2,4,5-trimethoxybenzoate] | 134 to 135 °C
COc1ccc(C(=O)OCCCSc2ccnc3cc(Cl)ccc23)cc1 [Compound 23, 3-[(7-Chloroquinolin-4-yl)sulfanyl]propyl-4-methoxybenzoate] | 106 to 108 °C
COc1ccccc1C(=O)OCCSc1ccnc2cc(Cl)ccc12 [Compound 22, 2-[(7-Chloroquinolin-4-yl)sulfanyl]ethyl-2-methoxybenzoate] | 98 to 99 °C
COc1ccc(C(=O)OCCCSc2ccnc3cc(Cl)ccc23)c(OC)c1 [Compound 25, 3-[(7-Chloroquinolin-4-yl)sulfanyl]propyl-2,4-dimethoxybenzoate] | 74 to 76 °C
COc1ccc(C(=O)OCCSc2ccnc3cc(Cl)ccc23)c(OC)c1 [Compound 7, 2-[(7-Chloroquinolin-4-yl)sulfanyl]ethyl 2,4-dimethoxybenzoate] | 107 to 108 °C
Cc1cc(C)cc(C(=O)OCCSc2ccnc3cc(Cl)ccc23)c1 [Compound 19, 2-[(7-Chloroquinolin-4-yl)sulfanyl]ethyl 3,5-dimethylbenzoate] | 102 to 104 °C
COc1ccc(C(=O)OCCSc2ccnc3cc(Cl)ccc23)c(OC)c1OC [Compound 12, 2-[(7-Chloroquinolin-4-yl)sulfanyl]ethyl 2,3,4-trimethoxybenzoate] | 94 to 96 °C
O=C(OCCSc1ccnc2cc(Cl)ccc12)c1cccc(Cl)c1 [Compound 16, 2-[(7-Chloroquinolin-4-yl)sulfanyl]ethyl 3-chlorobenzoate] | 94 to 96 °C
COc1cc(OC)cc(C(=O)OCCCSc2ccnc3cc(Cl)ccc23)c1 [Compound 27, 3-[(7-Chloroquinolin-4-yl)sulfanyl]propyl-3,5-dimethoxybenzoate] | 148 °C
COc1ccc(C(=O)OCCSc2ccnc3cc(Cl)ccc23)cc1[N+](=O)[O-] [Compound 17, 2-[(7-Chloroquinolin-4-yl)sulfanyl]ethyl 4-methoxy-3-nitrobenzoate] | 171 to 173 °C
COc1cccc(C(=O)OCCCSc2ccnc3cc(Cl)ccc23)c1OC [Compound 24, 3-[(7-Chloroquinolin-4-yl)sulfanyl]propyl-2,3-dimethoxybenzoate] | 78 to 80 °C
COc1ccc(C(=O)OCCSc2ccnc3cc(Cl)ccc23)cc1 [Compound 5, 2-[(7-Chloroquinolin-4-yl)sulfanyl]ethyl-4-methoxybenzoate] | 116 to 118 °C
COc1ccc(OC)c(C(=O)OCCSc2ccnc3cc(Cl)ccc23)c1 [Compound 8, 2-[(7-Chloroquinolin-4-yl)sulfanyl]ethyl-2,5-dimethoxybenzoate] | 98 to 100 °C
Cc1ccc([N+](=O)[O-])c(C(=O)OCCSc2ccnc3cc(Cl)ccc23)c1 [Compound 18, 2-[(7-Chloroquinolin-4-yl)sulfanyl]ethyl 5-methyl-2-nitrobenzoate] | 93 to 95 °C
COc1cc(C(=O)OCCSc2ccnc3cc(Cl)ccc23)cc(OC)c1OC [Compound 14, 2-[(7-Chloroquinolin-4-yl)sulfanyl]ethyl 3,4,5-trimethoxybenzoate] | 139 to 140 °C
COc1ccc(OC)c(C(=O)OCCCSc2ccnc3cc(Cl)ccc23)c1 [Compound 26, 3-[(7-Chloroquinolin-4-yl)sulfanyl]propyl-2,5-dimethoxybenzoate] | 97 to 98 °C
O=C(OCCSc1ccnc2cc(Cl)ccc12)c1ccccc1Cl [Compound 15, 2-[(7-Chloroquinolin-4-yl)sulfanyl]ethyl 2-chlorobenzoate] | 108 °C
COc1cccc(OC)c1C(=O)OCCSc1ccnc2cc(Cl)ccc12 [Compound 9, 2-[(7-Chloroquinolin-4-yl)sulfanyl]ethyl 2,6-dimethoxybenzoate] | 116 to 118 °C
COc1ccc(C(=O)OCCSc2ccnc3cc(Cl)ccc23)cc1OC [Compound 10, 2-[(7-Chloroquinolin-4-yl)sulfanyl]ethyl 3,4-dimethoxybenzoate] | 109 to 110 °C
O=C(OCCSc1ccnc2cc(Cl)ccc12)c1ccc(C(F)(F)F)cc1 [Compound 20, 2-[(7-Chloroquinolin-4-yl)sulfanyl]ethyl 4-(trifluoromethyl)benzoate] | 134 to 136 °C
COc1cccc(C(=O)OCCSc2ccnc3cc(Cl)ccc23)c1OC [Compound 6, 2-[(7-Chloroquinolin-4-yl)sulfanyl]ethyl 2,3-dimethoxybenzoate] | 108 to 109 °C
CC(C)(C)c1ccc(C(=O)OCCSc2ccnc3cc(Cl)ccc23)cc1 [Compound 21, 2-[(7-Chloroquinolin-4-yl)sulfanyl]ethyl-4-tert-butylbenzoate] | 120 to 122 °C
COc1cc(OC)cc(C(=O)OCCSc2ccnc3cc(Cl)ccc23)c1 [Compound 11, 2-[(7-Chloroquinolin-4-yl)sulfanyl]ethyl 3,5-dimethoxybenzoate] | 100 to 102 °C
COc1ccc(C(=O)OCCCSc2ccnc3cc(Cl)ccc23)c(OC)c1OC [Compound 28, 3-[(7-Chloroquinolin-4-yl)sulfanyl]propyl-2,3,4-trimethoxybenzoate] | 84 °C

The remaining lines, values ahead:

melting point | Compound
98 to 100 °C | COc1cc(C(=O)OCCCSc2ccnc3cc(Cl)ccc23)cc(OC)c1OC [Compound 30, 3-[(7-Chloroquinolin-4-yl)sulfanyl]propyl-3,4,5-trimethoxybenzoate]
112 to 113 °C | COc1ccc(OC)c(C(=O)OCC[S+]([O-])c2ccnc3cc(Cl)ccc23)c1 (centres unmarked) [Compound 44, 2-[(7-Chloroquinolin-4-yl)sulfinyl]ethyl-2,5-dimethoxybenzoate]
88 to 90 °C | CC(C)(C)c1ccc(C(=O)OCCCSc2ccnc3cc(Cl)ccc23)cc1 [Compound 39, 3-[(7-Chloroquinolin-4-yl)sulfanyl]propyl-4-tert-butylbenzoate]
112 to 113 °C | O=C(OCCCSc1ccnc2cc(Cl)ccc12)c1ccccc1F [Compound 40, 3-[(7-Chloroquinolin-4-yl)sulfanyl]propyl-2-fluorobenzoate]
136 to 138 °C | Cc1cc(C)cc(C(=O)OCCCSc2ccnc3cc(Cl)ccc23)c1 [Compound 37, 3-[(7-Chloroquinolin-4-yl)sulfanyl]propyl-3,5-dimethylbenzoate]
122 to 124 °C | O=C(OCCCSc1ccnc2cc(Cl)ccc12)c1ccc(C(F)(F)F)cc1 [Compound 38, 3-[(7-Chloroquinolin-4-yl)sulfanyl]propyl-4-(trifluoromethyl)benzoate]
96 to 98 °C | O=C(OCCCSc1ccnc2cc(Cl)ccc12)c1cccc(Cl)c1 [Compound 33, 3-[(7-Chloroquinolin-4-yl)sulfanyl]propyl-3-chlorobenzoate]
91 to 92 °C | Cc1ccc([N+](=O)[O-])c(C(=O)OCCCSc2ccnc3cc(Cl)ccc23)c1 [Compound 36, 3-[(7-Chloroquinolin-4-yl)sulfanyl]propyl-5-methyl-2-nitrobenzoate]
138 to 140 °C | COc1ccc(C(=O)OCCCSc2ccnc3cc(Cl)ccc23)cc1[N+](=O)[O-] [Compound 35, 3-[(7-Chloroquinolin-4-yl)sulfanyl]propyl-4-methoxy-3-nitrobenzoate]
100 to 102 °C | O=C(OCCCSc1ccnc2cc(Cl)ccc12)c1ccccc1Cl [Compound 32, 3-[(7-Chloroquinolin-4-yl)sulfanyl]propyl-2-chlorobenzoate]
95 to 97 °C | COc1ccccc1C(=O)OCCCSc1ccnc2cc(Cl)ccc12 [Compound 31, 3-[(7-Chloroquinolin-4-yl)sulfanyl]propyl-2-methoxybenzoate]
118 to 120 °C | COc1cc(OC)c(C(=O)OCCCSc2ccnc3cc(Cl)ccc23)cc1OC [Compound 29, 3-[(7-Chloroquinolin-4-yl)sulfanyl]propyl-2,4,5-trimethoxybenzoate]
110 °C | COc1cccc(C(=O)OCC[S+]([O-])c2ccnc3cc(Cl)ccc23)c1OC (centres unmarked) [Compound 43, 2-[(7-Chloroquinolin-4-yl)sulfinyl]ethyl-2,3-dimethoxybenzoate]
88 to 89 °C | O=C(OCCCSc1ccnc2cc(Cl)ccc12)c1ccc(Cl)cc1Cl [Compound 34, 3-[(7-Chloroquinolin-4-yl)sulfanyl]propyl-2,4-dichlorobenzoate]
151 to 153 °C | COc1cc(OC)c(C(=O)OCC[S+]([O-])c2ccnc3cc(Cl)ccc23)cc1OC (centres unmarked) [Compound 45, 2-[(7-Chloroquinolin-4-yl)sulfinyl]ethyl-2,4,5-trimethoxybenzoate]
144 to 146 °C | COc1cc(C(=O)OCC[S+]([O-])c2ccnc3cc(Cl)ccc23)cc(OC)c1OC (centres unmarked) [Compound 46, 2-[(7-Chloroquinolin-4-yl)sulfinyl]ethyl-3,4,5-trimethoxybenzoate]
126 to 128 °C | COc1ccc(C(=O)OCC[S+]([O-])c2ccnc3cc(Cl)ccc23)cc1 (centres unmarked) [Compound 42, 2-[(7-Chloroquinolin-4-yl)sulfinyl]ethyl-4-methoxybenzoate]

Source: article PMC9607427, “Novel 7-Chloro-(4-thioalkylquinoline) Derivatives: Synthesis and Antiproliferative Activity through Inducing Apoptosis and DNA/RNA Damage” (Pharmaceuticals, 2022)
